Consider 94 molecules from ChEMBL document CHEMBL3507680, “University of Dundee, Gates Library screen for HepG2 cell viability”.

The structures appear in SMILES notation.

The series in a line: Human HepG2 cell viability assay in 384 well format. Set-up: dose 125 nL, time 70.5 hour; cytotoxicity at 70.5 h: concentration not given beside the values. The class given is toxicity, cell-based. Particulars: HepG2 cells, read-out: Inhibition.

Consider `CN(Cc1ccccc1O)CC1CCCN(CCc2ccc(Cl)cc2)C1` (centres undefined), for which the cytotoxicity at 70.5 h is -2.45%.

Turning to `CN1CCN(S(C)(=O)=O)Cc2cccnc21`, the cytotoxicity at 70.5 h is -2.81%.

With `c1cc(CN2CCCC3(CCN(CC4CCCO4)CC3)C2)n[nH]1` (centres undefined), the cytotoxicity at 70.5 h was -6.85%.

For the molecule `O=S(=O)(C1CC1)N1CCC2(CN(c3ncccn3)C2)C1`, the cytotoxicity at 70.5 h was 9.33%.

Consider `Cc1nc(CO[C@H]2CN(C(=O)c3cccnc3)[C@@H]3COC[C@H]23)cs1`, for which the cytotoxicity at 70.5 h is -6.99%.

As for `Cn1cnc2c(-c3cccnc3)nc(C3CCN(S(C)(=O)=O)CC3)cc21`, the cytotoxicity at 70.5 h was -8.84%.

Take `Cc1ccc(CN2CC[C@H]3CO[C@H](CN(C)C)[C@H]3C2)o1`: the cytotoxicity at 70.5 h is -11.2%.

For `COCCNC(=O)[C@]12COC[C@H]1CN(C1CCOCC1)C2`, the cytotoxicity at 70.5 h amounted to 10.6%.

On to `CN1C(=O)CC(c2ccccc2)C12CCN(c1ncccn1)CC2` (centres undefined), for which the cytotoxicity at 70.5 h is 27.6%.

In the case of `CC(C)NC(=O)N1C[C@H]2C[C@H](C(=O)N3CCCC3)[C@@H](C1)O2`, the cytotoxicity at 70.5 h stood at 21.9%.

Turning to `COCCN1C[C@@H]2CN(c3cnccn3)C[C@@H]2C1=O`, the cytotoxicity at 70.5 h was -10.9%.

For `O=C(Cc1ccco1)N1C[C@@H]2COC[C@]2(COCC2CCOCC2)C1`, the cytotoxicity at 70.5 h is -7.33%.

As for `CC(C)[C@H]1CN(Cc2ccccn2)C[C@@H]1NS(=O)(=O)C1CC1`, the cytotoxicity at 70.5 h is -3.34%.

Take `CCCOC1CCCN(c2ncnc3c2CCN(C(=O)C2CC2)C3)C1` (centres undefined): the cytotoxicity at 70.5 h was -7.75%.

Consider `COc1cc2c(cc1CNC(=O)C(C)n1ccnc1C(C)C)CCC2` (centres undefined), for which the cytotoxicity at 70.5 h is -11.2%.

As to `Cc1nc(CN2CCN(c3cc(CCN)ncn3)CC2)cs1`, the cytotoxicity at 70.5 h is -2.73%.

`Cc1nc(C)n(CCCNc2ncnc(C)c2C)n1`: the cytotoxicity at 70.5 h worked out at 18%.

`Cc1nn(CCO)c(C)c1-c1cc(C(C)(C)C)nc(N)c1C#N`: the cytotoxicity at 70.5 h came to 16.9%.

Turning to `Cc1ccnc(N2Cc3cnn(Cc4ccc(F)cc4)c3C2)n1`, the cytotoxicity at 70.5 h turned out to be 15.1%.

Regarding `N[C@H]1CN(C(=O)CCCc2ccc(F)cc2)C[C@@H]1C1CC1`, the cytotoxicity at 70.5 h is -6.92%.

For the molecule `CN(C)CCCN(C)C1CCN(c2cccc(-c3cscn3)c2)CC1`, the cytotoxicity at 70.5 h was -2.04%.

Take `O=C(O)C1(Cc2ccccc2F)CCCN(c2ncnc3[nH]ccc23)C1` (centres undefined): the cytotoxicity at 70.5 h is -0.879%.

Regarding `CC(=O)NCc1cc2n(n1)CCN(Cc1cccc(Cl)c1Cl)C2`, the cytotoxicity at 70.5 h was 0.275%.

Regarding `CC(C)c1noc(CN(C)C(=O)c2ncn[nH]2)n1`, the cytotoxicity at 70.5 h stood at 3.61%.

For `CC1CCc2n[nH]c(C(=O)NCCc3ccco3)c2C1` (centres undefined), the cytotoxicity at 70.5 h is -2.98%.

On to `Cc1c(C(=O)N2CCCC(O)(CN(C)C)CC2)c2cc(O)ccc2n1C` (centres undefined), for which the cytotoxicity at 70.5 h was determined as 13.3%.

For the molecule `Cc1nnc(SCCNc2cc(C3CC3)ncn2)s1`, the cytotoxicity at 70.5 h was -5.85%.

As to `CNS(=O)(=O)CCN1CC(c2ccccc2)(c2ccccc2)CCC1=O`, the cytotoxicity at 70.5 h turned out to be 5.38%.

Consider `CC(CN1CCC(CCO)CC1)n1cnc2ccccc21` (centres undefined), for which the cytotoxicity at 70.5 h is -11.4%.

Consider `COc1ccc(-n2cccn2)c(CN2CCC(O)(CO)CC2)c1`, for which the cytotoxicity at 70.5 h is -11.1%.

For the molecule `CCCc1nnc(NCCc2noc(C3CCCC3)n2)o1`, the cytotoxicity at 70.5 h came out at 9.03%.

Take `NC(=O)c1nc(CN2CCOC(C(F)(F)F)C2)no1` (centres undefined): the cytotoxicity at 70.5 h was 11.5%.

As for `COc1ccc(-n2nc(C)c(C(C)=O)c2C)cc1CO`, the cytotoxicity at 70.5 h came out at 0.889%.

Take `CC(NC(=O)CCCn1cnc2ccccc2c1=O)c1ncn[nH]1` (centres undefined): the cytotoxicity at 70.5 h is -15.2%.

On to `CCn1ncc2c1NC(=O)CC2c1cnc(NCc2ccccc2)nc1` (centres undefined), for which the cytotoxicity at 70.5 h amounted to 14.7%.

Regarding `Cc1cc(CN(C)C(=O)c2cccc(CCC(C)(C)O)c2)no1`, the cytotoxicity at 70.5 h was -7.67%.

On to `CCNc1ncc(C(=O)N(C)CCc2nc3cc(Cl)ccc3[nH]2)cn1`, for which the cytotoxicity at 70.5 h was -16.7%.

As to `Cc1ccc(Oc2ncccc2CNC2CCSCC2)cn1`, the cytotoxicity at 70.5 h is -8.64%.

Regarding `CCC1CN(C(=O)c2ccccc2N2CCOCC2)CCN1C(C)C` (centres undefined), the cytotoxicity at 70.5 h was -1.59%.

Turning to `O=S1(=O)COCCN1Cc1ccc(Cl)c(Cl)c1`, the cytotoxicity at 70.5 h is -6.71%.

With `O=C1NCCCc2[nH]c(Cc3ccc(F)cc3)nc21`, the cytotoxicity at 70.5 h was -6%.

For `Cc1ccc(OCCN(C)Cc2nccn2C)c(C)c1`, the cytotoxicity at 70.5 h was -9.5%.

Turning to `OCc1csc(N2C[C@@H](CN3CCCCCC3)[C@@H](CO)C2)n1`, the cytotoxicity at 70.5 h is -7.86%.

In the case of `CC(=O)N[C@@H]1CN(Cc2ccco2)C[C@H]1c1ccc(C)o1`, the cytotoxicity at 70.5 h was -6.07%.

As for `Cc1nc[nH]c1CN1C[C@@H]2CC[C@H](C1)N(C(=O)CCn1cncn1)C2`, the cytotoxicity at 70.5 h is -15%.

Regarding `c1ccc(Cc2noc(-c3ccc(NCC4COCCO4)nc3)n2)cc1` (centres undefined), the cytotoxicity at 70.5 h was -5.85%.

On to `CCN1CCCC1Cn1ccc2ccc(C(=O)OC)cc2c1=O` (centres undefined), for which the cytotoxicity at 70.5 h is -8.61%.

Consider `CN(C)S(=O)(=O)N1C[C@@H]2CC[C@H](C1)N(Cc1ccc3c(c1)OCCO3)C2`, for which the cytotoxicity at 70.5 h is -3.43%.

Take `CCC[C@H]1CN(c2cncc(C(=O)N(C)C)n2)C[C@@H]1N(C)C`: the cytotoxicity at 70.5 h stood at 19.4%.

`COc1cccc(C(=O)C2CCCN(c3nccc(N)n3)C2)c1` (centres undefined): the cytotoxicity at 70.5 h is -3.78%.

For the molecule `O=C1CCC2(CCN(Cc3ccoc3)CC2)N1OCc1ccccc1F`, the cytotoxicity at 70.5 h is -7.61%.

On to `OCCCN1CCOC(c2ccc(F)cc2)C1` (centres undefined), for which the cytotoxicity at 70.5 h is -6.31%.

As for `Cn1c(-c2ccc(F)cc2)cn2cc(C(=O)N3CCC(N)C3)nc2c1=O` (centres undefined), the cytotoxicity at 70.5 h was -9.46%.

As to `COc1ncc(CN2CCOC(Cc3cccc4ccccc34)C2)cn1` (centres undefined), the cytotoxicity at 70.5 h worked out at 20%.

As for `CC(=O)N1CCN(Cc2ccc(C(F)(F)F)cc2F)CC(O)C1` (centres undefined), the cytotoxicity at 70.5 h was -10.5%.

For the molecule `CCOc1ccc(-c2c(C#N)c(N)nc3c2COCC3)cn1`, the cytotoxicity at 70.5 h was -15%.

`COc1ccc(NC2(C(=O)N3CCn4cncc4C3)CCCC2)cc1`: the cytotoxicity at 70.5 h is -11.8%.

Turning to `O=C(c1cn[nH]c1)N1CCC2(CCCN(Cc3ccc(F)c(F)c3)C2)C1` (centres undefined), the cytotoxicity at 70.5 h was -8.34%.

Consider `COC(=O)CN1CCN(c2nc3c(s2)c(C)nn3C)C(C)C1=O` (centres undefined), for which the cytotoxicity at 70.5 h amounted to 3.44%.

As to `CC(c1cccc(-c2ccc(C(=O)O)cc2Cl)c1)N(C)C` (centres undefined), the cytotoxicity at 70.5 h is -1.21%.

In the case of `O=C(O)CNc1cc(-c2nccnc2N2CCCC2)c2cc[nH]c2n1`, the cytotoxicity at 70.5 h turned out to be 0.303%.

Take `COc1ccc(-c2nc(C3CCNCC3)cc3c2ncn3C)cc1`: the cytotoxicity at 70.5 h is 11.7%.

`c1cncc(CNc2ccc3nc(C4CCNCC4)nn3c2)c1`: the cytotoxicity at 70.5 h was -4.24%.

With `CS(=O)(=O)N1C[C@H](C(=O)Nc2cccnc2)[C@@H]2CCO[C@@H]2C1`, the cytotoxicity at 70.5 h was -4.86%.

With `Cc1cnc(C(=O)N2CCC3(CCN3Cc3ccc(F)cc3)C2)cn1` (centres undefined), the cytotoxicity at 70.5 h was -0.513%.

With `O=c1ccc2c(n1CC1CC1)CCC(NCc1cccs1)C2` (centres undefined), the cytotoxicity at 70.5 h is -10.4%.

As to `Cn1cc(-c2ncnc3c2CCN(CC2CCOC2)CC3)cn1` (centres undefined), the cytotoxicity at 70.5 h is -7.49%.

In the case of `Cc1ccc(CN2CC[C@@H]3[C@@H]2CCN3C(=O)Cc2cccs2)o1`, the cytotoxicity at 70.5 h is -5.34%.

Regarding `CCc1cnc(N2CCc3cc(C(=O)NC)c(N(C)C)nc3CC2)nc1`, the cytotoxicity at 70.5 h is -13.6%.

For `Cc1ccc(CN2CC[C@H]3OCC[C@@]3(COCC(=O)N(C)C)C2)s1`, the cytotoxicity at 70.5 h amounted to 15.2%.

As to `Fc1cccc(-c2nnn3c2COC(CNCc2nccs2)C3)c1` (centres undefined), the cytotoxicity at 70.5 h amounted to 14.6%.

Turning to `COC[C@@]12CCO[C@@H]1CCN(Cc1ccc(C)s1)C2`, the cytotoxicity at 70.5 h stood at 15.9%.

Turning to `O=C([C@@H]1COC[C@H]2CN(C3CCCC3)C[C@H]21)N1CCC(F)CC1`, the cytotoxicity at 70.5 h was -1.78%.

Consider `COC[C@@]12CCO[C@@H]1CCN(Cc1ccccc1OC)C2`, for which the cytotoxicity at 70.5 h is -12.9%.

Turning to `c1ccc(NC[C@@H]2CCC[C@@H]3CN(c4ncccn4)C[C@@H]32)nc1`, the cytotoxicity at 70.5 h is -13.7%.

Consider `CC(C)COC1CC2(CCN(C(=O)Cc3ccccn3)CC2)C1`, for which the cytotoxicity at 70.5 h was -11.8%.

Regarding `O=C([C@H]1COC[C@H]2CN(C3CCCCC3)C[C@H]21)N1CCOCC1`, the cytotoxicity at 70.5 h was -9.52%.

As for `O=C(NC1CC1)[C@H]1CC[C@@H]2[C@@H](CCN2CCOCc2ccccc2)O1`, the cytotoxicity at 70.5 h was -8.73%.

Regarding `Cn1ccc(C(=O)N2C[C@@H]3CCN(c4cnccn4)C[C@@H]3C2)n1`, the cytotoxicity at 70.5 h was -9.79%.

For the molecule `Cc1ccc(N2CC[C@H]3CN(C(=O)c4ccn(C)n4)C[C@H]3C2)nn1`, the cytotoxicity at 70.5 h is -7.56%.

As to `CNC(=O)[C@H]1C[C@@H]2CN(Cc3c(C)noc3C)C[C@@H]2N1C(C)=O`, the cytotoxicity at 70.5 h is -3.36%.

Turning to `CCCN1CC[C@@H]2[C@@H](CO[C@H]2CNC(=O)c2nccn2C)C1`, the cytotoxicity at 70.5 h is -5.44%.

With `O=C1[C@@H]2CN(Cc3ccccn3)C[C@H]2CCN1c1cncnc1`, the cytotoxicity at 70.5 h was -4.74%.

As to `Cc1cc(CN2CC[C@]3(C[C@@H](OCC(=O)N(C)C)CO3)C2)no1`, the cytotoxicity at 70.5 h was -6.96%.

As to `Cn1cc(-c2ncc3c(c2C(=O)O)CCN(Cc2ccccn2)C3)cn1`, the cytotoxicity at 70.5 h is -1.31%.

In the case of `COCC1CN(CCOc2ccc(Cl)cc2)Cc2c1cnn2C` (centres undefined), the cytotoxicity at 70.5 h was -6.25%.

`COCCn1c2c(ccc1=O)CC(NCc1cccnc1OC)CC2` (centres undefined): the cytotoxicity at 70.5 h is -13.6%.

Turning to `Cc1cccc(CN2CC[C@@H]3[C@@H]2CCN3C(=O)Cc2ccsc2)n1`, the cytotoxicity at 70.5 h was -22.6%.

Turning to `CN(C)C[C@]12COC[C@H]1CN(Cc1ccc3c(c1)OCO3)C2`, the cytotoxicity at 70.5 h was -2.79%.

Consider `Cc1ccc(CN2CC[C@@H]3[C@@H](CO[C@H]3CN(C)C)C2)o1`, for which the cytotoxicity at 70.5 h was -5.5%.

Take `Cn1cc(N2C[C@@H]3CN(Cc4ccccn4)C[C@@H]3C2=O)cn1`: the cytotoxicity at 70.5 h was 24.4%.

With `CNC(=O)[C@@H]1C[C@H]2CN(Cc3c(C)noc3C)C[C@H]2N1C(C)C`, the cytotoxicity at 70.5 h is -7.3%.

Take `CCCN1CCC(c2nc3ccc(NCc4ccccc4)cn3n2)CC1`: the cytotoxicity at 70.5 h is -1.96%.

With `CC(C)CCN1CCc2[nH]nc(C(=O)N3CC=CC3)c2C1`, the cytotoxicity at 70.5 h was -6.59%.
